Here are results for 25 compounds from US7622492B2, “Pyrazolones as inhibitors of 11β-hydroxysteroid dehydrogenase” (Hoffmann-La Roche Inc., priority 2005, dated 2009).

The target of one test is human HSD1 (Homo sapiens, UniProt P28845). Nature of the test: In vitro inhibition of purified human HSD1 (time-resolved fluorescence cortisol detection). Particulars: purified human HSD1, cortisone substrate, 30 min; read-out: hHSD1 IC50. Format: biochemical. On the procedure:
Purified human HSD1 was diluted in 50 mM Tris-HCl, 100 mM NaCl, 0.1 mg/ml BSA, 0.02% Lubrol, 20 mM MgCl2, 10 mM glucose 6-phosphate, 0.4 mM NADPH, 60 U/ml glucose 6-phosphate dehydrogenase to a concentration of 1.5 μg/ml (Enzyme Solution). […] Testing compounds (40 μM) in DMSO was diluted 3 fold in series in DMSO and further diluted 20 fold in Substrate Solution. Enzyme Solution (10 μl/well) was added into 384 well microtiter plates followed by diluted compound solutions (10 μl/well) and mixed well. Samples were then incubated at […] for 30 min. EDTA/biotin-cortisol solution (10 μl/well) in 28 mM EDTA, […], 50 mM Tris-HCl, 100 mM NaCl was then added followed by 5 ul/well of anti-cortisol antibody (3.2 μg/ml) in 50 mM Tris-HCl, 100 mM NaCl, 0.1 mg/ml BSA and the solution was incubated at 37 degrees for 30 min. […] Signals were quantitated by reading time-resolved fluorescence on a Victor 5 reader (Wallac).

For the next test, the target named is T1, human 11betaHSD1 (Homo sapiens, UniProt P28845).
T1 construct: HEK-293 cells stably transfected with full-length human 11betaHSD1 cDNA; expressed in transfected cells; host or cells: HEK-293
Description: Cell-based assay: HEK-293 cells stably transfected with human 11betaHSD1, cortisol by competitive ELISA. Particulars: HEK-293 cells stably transfected with full-length human 11betaHSD1 cDNA, cortisone 100 nM, 1 hour. On the procedure: The following day, serially diluted 11bHSD1 inhibitor compounds dissolved in DMSO were added to plating media supplemented with BSA (2 mg/ml final). The final DMSO concentration was 1%. Media was aspirated from plates, and compounds in media were added to each well. The plates were incubated at 37° C. for 1 hour to allow for cellular uptake of compounds. 10 μL of substrate (cortisone) was then added to each well (100 nM final concentration) and incubated for 1 hour at 37° C. Plates were then transferred to ice and 80 μL of media transferred to a 96-well plate and stored at −30° C.
Plates were washed with PBS, 0.1% Tween-20, then washed with PBS alone. Plates were blocked with Blocking Buffer (Tropix Cat# AI075) for 2 hours at room temperature. The plates were then washed as previously described. Assay samples were thawed, diluted 1:4 in DMEM, 2 mg/mL BSA, 1% DMSO, and 24 μL was transferred to wells of a pre-coated 384-well plate, as well as varying amounts of cortisol standard. To each well, 12 μL of cortisol-conjugate and 12 μL of anti-cortisol EIA antibody were added and incubated 2 hrs at room temperature on a orbital plate shaker. The wells were then emptied by inversion, then washed three times with 100 μL of Wash Buffer (Tropix), and then 2 times with 100 μL of Assay Buffer (Tropix). 60 μL of CDP-STAR (Tropix) was added to each well and incubated 10 minutes at room temperature. Chemiluminescence was measured using a Victor V Reader (Perkin Elmer). Cortisol in each sample was interpolated from a standard curve generated with known amounts of cortisol. IC50 values were calculated using the curve fitting software XLFit3 (IDBS).
Background: ELISA stands for enzyme-linked immunosorbent assay.

Sequence of human HSD1 (P28845 whole entry): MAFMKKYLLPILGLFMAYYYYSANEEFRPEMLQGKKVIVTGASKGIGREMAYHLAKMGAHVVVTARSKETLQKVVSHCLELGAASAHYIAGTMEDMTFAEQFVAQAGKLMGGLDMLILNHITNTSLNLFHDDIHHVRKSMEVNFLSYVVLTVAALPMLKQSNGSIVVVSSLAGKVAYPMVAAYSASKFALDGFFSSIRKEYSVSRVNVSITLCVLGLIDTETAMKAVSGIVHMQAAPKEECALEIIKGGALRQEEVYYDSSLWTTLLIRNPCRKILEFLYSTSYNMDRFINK
T1 sequence (P28845 whole entry): as above

The IC50 is the concentration at which inhibition is half-maximal. As to `Cn1c2c(c(=O)n1-c1ccccc1F)[C@H]1CC[C@]2(C)C1(C)C` [Example 12, (4S,7R)-2-(2-Fluoro-phenyl)-1,7,8,8-tetramethyl-1,2,4,5,6,7-hexahydro-4,7-methano-indazol-3-one], the IC50 turned out to be 291 nM at human HSD1 and 19 nM at human 11betaHSD1.

As for `Cn1c2c(c(=O)n1-c1ccc(F)cc1)[C@H]1CC[C@]2(C)C1(C)C` [Example 17, (4S,7R)-2-(4-Fluoro-phenyl)-1,7,8,8-tetramethyl-1,2,4,5,6,7-hexahydro-4,7-methano-indazol-3-one], the IC50 on human HSD1 came out at 1720 nM; at human 11betaHSD1, 110 nM.

As for `Cc1cccc(-n2c(=O)c3c(n2C)[C@]2(C)CC[C@H]3C2(C)C)c1C` [Example 21, (4S,7R)-2-(2,3-Dimethyl-phenyl)-1,7,8,8-tetramethyl-1,2,4,5,6,7-hexahydro-4,7-methano-indazol-3-one], the 50% inhibitory concentration (IC50) at human HSD1 worked out at 10 nM; at human 11betaHSD1 it was 19 nM.

Consider `Cn1c2c(c(=O)n1Cc1cccc(F)c1)[C@H]1CC[C@]2(C)C1(C)C` [Example 32, (4S,7R)-2-(3-Fluoro-benzyl)-1,7,8,8-tetramethyl-1,2,4,5,6,7-hexahydro-4,7-methano-indazol-3-one], for which the half-inhibitory concentration (IC50) on human HSD1 turned out to be 23 nM; on human 11betaHSD1, 60 nM.

On to `COc1cccc(Cn2c(=O)c3c(n2C)[C@]2(C)CC[C@H]3C2(C)C)c1` [Example 34, (4S,7R)-2-(3-Methoxy-benzyl)-1,7,8,8-tetramethyl-1,2,4,5,6,7-hexahydro-4,7-methano-indazol-3-one], for which the IC50 stood at 472 nM at human HSD1 and 134 nM on human 11betaHSD1.

As to `Cn1c2c(c(=O)n1Cc1ccc(F)cc1C(F)(F)F)[C@H]1CC[C@]2(C)C1(C)C` [Example 37, (4S,7R)-2-(4-Fluoro-2-trifluoromethyl-benzyl)-1,7,8,8-tetramethyl-1,2,4,5,6,7-hexahydro-4,7-methano-indazol-3-one], the IC50 on human 11betaHSD1 was determined as 27 nM.

`Cn1c2c(c(=O)n1Cc1ccc(C(N)=O)cc1)[C@H]1CC[C@]2(C)C1(C)C` [Example 39, (4S,7R)-4-(1,7,8,8-Tetramethyl-3-oxo-1,3,4,5,6,7-hexahydro-4,7-methano-indazol-2-ylmethyl)-benzamide]: the IC50 at human HSD1 was 101 nM; at human 11betaHSD1 it was 243 nM.

On to `CC1(C)[C@@H]2CC[C@@]1(C)c1c2c(=O)n(-c2ccccc2)n1CCc1ccccc1` [Example 66, (4S,7R)-7,8,8-Trimethyl-1-phenethyl-2-phenyl-1,2,4,5,6,7-hexahydro-4,7-methano-indazol-3-one], for which the concentration for half-maximal inhibition (IC50) at human 11betaHSD1 worked out at 19 nM.

`CC(C)c1cccc(-n2c(=O)c3c(n2C)[C@]2(C)CC[C@H]3C2(C)C)c1` [Example 75, (4S,7R)-2-(3-Isopropyl-phenyl)-1,7,8,8-tetramethyl-1,2,4,5,6,7-hexahydro-4,7-methano-indazol-3-one] gave a half-inhibitory concentration (IC50) at human 11betaHSD1 of 17 nM.

Regarding `Cn1c2c(c(=O)n1-c1ccc(O)cc1)[C@H]1CC[C@]2(C)C1(C)C` [Example 76, (4S,7R)-2-(4-Hydroxy-phenyl)-1,7,8,8-tetramethyl-1,2,4,5,6,7-hexahydro-4,7-methano-indazol-3-one], at human 11betaHSD1, the IC50 was 20 nM.

`CC(C)CCn1c2c(c(=O)n1-c1ccc(F)cc1F)[C@H]1CC[C@]2(C)C1(C)C` [Example 87, (4S,7R)-2-(2,4-Difluoro-phenyl)-7,8,8-trimethyl-1-(3-methyl-butyl)-1,2,4,5,6,7-hexahydro-4,7-methano-indazol-3-one] showed a half-inhibitory concentration (IC50) on human 11betaHSD1 of 14 nM.

Turning to `CC(C)(C)c1ccc(Cn2c3c(c(=O)n2-c2ccc(F)cc2F)[C@H]2CC[C@]3(C)C2(C)C)cc1` [Example 98, (4S,7R)-1-(4-tert-Butyl-benzyl)-2-(2,4-difluoro-phenyl)-7,8,8-trimethyl-1,2,4,5,6,7-hexahydro-4,7-methano-indazol-3-one], the 50% inhibitory concentration (IC50) on human 11betaHSD1 was determined as 28 nM.

As for `COc1ccc(Cn2c3c(c(=O)n2-c2ccc(F)cc2F)[C@H]2CC[C@]3(C)C2(C)C)cc1` [Example 99, (4S,7R)-2-(2,4-Difluoro-phenyl)-1-(4-methoxy-benzyl)-7,8,8-trimethyl-1,2,4,5,6,7-hexahydro-4,7-methano-indazol-3-one], the 50% inhibitory concentration (IC50) at human 11betaHSD1 was 14 nM.

Compound `CC1(C)[C@@H]2CC[C@@]1(C)c1c2c(=O)n(-c2ccc(F)cc2F)n1Cc1ccc(C(F)(F)F)cc1` [Example 103, (4S,7R)-2-(2,4-Difluoro-phenyl)-7,8,8-trimethyl-1-(4-trifluoromethyl-benzyl)-1,2,4,5,6,7-hexahydro-4,7-methano-indazol-3-one] yielded an IC50 on human 11betaHSD1 of 11 nM.

Turning to `COc1ncccc1Cn1c2c(c(=O)n1-c1ccc(F)cc1F)[C@@H]1CC[C@@]2(C)C1(C)C` [Example 113, (4R,7S)-2-(2,4-Difluoro-phenyl)-1-(2-methoxy-pyridin-3-ylmethyl)-7,8,8-trimethyl-1,2,4,5,6,7-hexahydro-4,7-methano-indazol-3-one], the concentration for half-maximal inhibition (IC50) on human 11betaHSD1 was found to be 36 nM.

The compound `CC1(C)[C@H]2CC[C@]1(C)c1c2c(=O)n(-c2ccc(F)cc2Cl)n1Cc1ccccc1` [Example 120, (4R,7S)-1-Benzyl-2-(2-chloro-4-fluoro-phenyl)-7,8,8-trimethyl-1,2,4,5,6,7-hexahydro-4,7-methano-indazol-3-one] yielded an IC50 on human 11betaHSD1 of 18 nM.

On to `CC1(C)[C@H]2CC[C@]1(C)c1c2c(=O)n(-c2ccc(F)cc2Cl)n1Cc1ccc(F)cc1F` [Example 122, (4R,7S)-2-(2-Chloro-4-fluoro-phenyl)-1-(2,4-difluoro-benzyl)-7,8,8-trimethyl-1,2,4,5,6,7-hexahydro-4,7-methano-indazol-3-one], for which, on human 11betaHSD1, the IC50 was determined as 21 nM.

Turning to `CC1(C)[C@@H]2CC[C@@]1(C)c1c2c(=O)n(-c2ccc(F)cc2Cl)n1Cc1ccc(F)cc1F` [Example 123, (4S,7R)-2-(2-Chloro-4-fluoro-phenyl)-1-(2,4-difluoro-benzyl)-7,8,8-trimethyl-1,2,4,5,6,7-hexahydro-4,7-methano-indazol-3-one], on human 11betaHSD1, the 50% inhibitory concentration (IC50) came to 9 nM.

The compound `Cn1c2c(c(=O)n1-c1cccc(Cl)c1Cl)[C@H]1CC[C@]2(C)C1(C)C` [Example 126, (4S,7R)-2-(2,3-Dichloro-phenyl)-1,7,8,8-tetramethyl-1,2,4,5,6,7-hexahydro-4,7-methano-indazol-3-one] gave an IC50 at human 11betaHSD1 of 6 nM.

In turn, `Cn1c2c(c(=O)n1-c1cc(C(F)(F)F)ccc1F)[C@H]1CC[C@]2(C)C1(C)C` [Example 132, (4S,7R)-2-(2-Fluoro-5-trifluoromethyl-phenyl)-1,7,8,8-tetramethyl-1,2,4,5,6,7-hexahydro-4,7-methano-indazol-3-one] yielded an IC50 at human 11betaHSD1 of 210 nM.

In the case of `Cn1c2c(c(=O)n1-c1cc(F)ccc1C(F)(F)F)[C@H]1CC[C@]2(C)C1(C)C` [Example 133, (4S,7R)-2-(5-Fluoro-2-trifluoromethyl-phenyl)-1,7,8,8-tetramethyl-1,2,4,5,6,7-hexahydro-4,7-methano-indazol-3-one], the concentration for half-maximal inhibition (IC50) at human 11betaHSD1 is 21 nM.

The compound `Cc1cccc(-n2c(=O)c3c(n2Cc2ccccc2)[C@@]2(C)CC[C@@H]3C2(C)C)c1C` [Example 137, (4R,7S)-1-Benzyl-2-(2,3-dimethyl-phenyl)-7,8,8-trimethyl-1,2,4,5,6,7-hexahydro-4,7-methano-indazol-3-one] came in with a half-inhibitory concentration (IC50) at human 11betaHSD1 of 4 nM.

In the case of `Cn1c2c(c(=O)n1-c1ccc3ccccc3c1)[C@H]1CC[C@]2(C)C1(C)C` [Example 144, (4S,7R)-1,7,8,8-Tetramethyl-2-naphthalen-2-yl-1,2,4,5,6,7-hexahydro-4,7-methano-indazol-3-one], on human 11betaHSD1, the concentration for half-maximal inhibition (IC50) amounted to 24 nM.

Take `CC1(C)[C@H]2CC[C@]1(C)c1c2c(=O)n(-c2ccc3ccccc3c2)n1Cc1ccccc1` [Example 145, (4R,7S)-1-Benzyl-7,8,8-trimethyl-2-naphthalen-2-yl-1,2,4,5,6,7-hexahydro-4,7-methano-indazol-3-one]: the half-inhibitory concentration (IC50) at human 11betaHSD1 is 21 nM.

On human 11betaHSD1, `Cc1nc(Cn2c(=O)c3c(n2Cc2ccccc2)[C@@]2(C)CC[C@@H]3C2(C)C)cs1` [Example 150, (4R,7S)-1-Benzyl-7,8,8-trimethyl-2-(2-methyl-thiazol-4-ylmethyl)-1,2,4,5,6,7-hexahydro-4,7-methano-indazol-3-one] registered a concentration for half-maximal inhibition (IC50) of 208 nM.
